Test results: US8614218B2, “Fused bicyclic pyrimidines” (Bayer Intellectual Property GmbH, priority 2007, dated 2013)

Tests used:
A549 cells = assay: Cellular proliferation/cytotoxicity assay (Alamar Blue), A549; format: cell-based; details: Homo sapiens, 72 h, Alamar Blue (Resazurin), read-out: Anti-proliterative/Cytotoxic activity (A549 cells)
Summary of the method: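 OvCAR3 (10000 cells/well) or A549 (2000 cells/well) were dosed 24 h after seeding and exposed for 72 h at 37 °C, 5% CO2, in duplicate or more. Resazurin was added for 4 h and fluorescence read at 544/590 nm. Viability is relative to untreated 0.5% DMSO controls, with IC50 by non-linear regression.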

phospho-Akt (Ser473) = assay: Cellular PI3K/Akt pathway assay (phospho-Akt ELISA); format: cell-based; details: Homo sapiens, MCF7 cells, β-Heregulin stimulated, 48 h incubation
Text: Cellular PI3K/Akt Pathway Assay
In order to study the cellular activity of the compounds according to the present invention, an Enzyme Linked Immunosorbent Assay (ELISA)-based assay has been used specific phospho-AKT. The assay is based on a Sandwich ELISA kit (PathScan™ Phospho-Akt1 (Ser473); Cell Signaling, USA; #7160). The ELISA Kit detects endogenous levels of phosphorylated Akt protein. A phospho-Akt (Ser473) antibody (Cell Signaling, USA; #9271) has been coated onto the microwells. After incubation with cell lysates, the coated antibody captures the phosphorylated Akt protein. Following extensive washing, Akt1 monoclonal antibody (Cell Signaling, USA; #2967) is added to detect the captured phospho-Akt1 protein. HRP-linked anti-mouse antibody (HRP: horseradish peroxidase; Cell Signaling, USA; #7076) is then used to recognize the bound detection antibody. HRP substrate (=3,3′,5,5′-tetramethylbenzidine (TMB); Cell Signaling, USA; #7160) is added to develop colour. The magnitude of optical density for this developed color is proportional to the quantity of phosphorylated Akt protein.
MCF7 cells (ATCC HTB-22) are seeded into 96 well fate bottom plates at a density of 10000 cells/well. 24 hours after seeding, the cells are serum starved using low-serum medium (IMEM media including 0.1% charcoal treated FCS (FCS: fetal calf serum)). After 24 hours 1 μl each of the compound dilutions (test compounds were dissolved as 10 mM solutions in dimethylsulfoxide (DMSO) and subsequently diluted) are added into each well of the 96 well plates and incubated for 48 h at 37° C. in a humidified atmosphere containing 5% CO2. To stimulate Akt phosphorylation, β-Heregulin (20 ng/ml β-HRG) is added in parallel to the compounds. Wells containing unstimulated control cells (no β-Heregulin stimulation) are incubated with or without the diluted compound. Wells containing untreated control cells (no compound) are filled with medium containing 0.5% v:v DMSO and are or are not stimulated with β-Heregulin.
Cells are harvested and lysed with brief sonification in 1× cell lysis buffer (20 mM Tris (pH7.5), 150 mM NaCl, 1 mM ethylene diaminetetraacetate (EDTA), 1 mM ethylene glycolbis(2-aminoethyl)-N,N,N′,N′-tetraacetic acid (EGTA), 1 vol % Triton X-100, 2.5 mM sodium pyrophosphate, 1 mM β-glycerolphosphate, 1 mM Na3VO4, 1 μg/ml leupeptin). The lysate is centrifuged for 10 min. at 4° C. and the supernatant is transferred to a new tube. 100 μl of sample diluent (0.1 vol % Tween-20, 0.1 vol % sodium azide in phosphate buffered saline (PBS)) are added to a microcentrifuge tube and 100 μl of cell lysate are transferred into the tube and vortexed. 100 μl of each diluted cell lysate are added to the appropriate ELISA well, and incubated overnight at 4° C. The plates are washed 4 times with 1× wash buffer (1 vol % tween-20, 0.33 vol % thymol, in PBS). Next 100 μl of detection antibody (Akt1 (2H10) monoclonal detection antibody; Cell Signaling, USA; #2967) are added to each well and incubation continued for 1 h at 37° C. The washing procedure is repeated between each step. 100 μl of secondary antibody (anti-mouse IgG HRP-linked antibody; Cell Signaling, USA; #7076) are added to each well and incubated for 30 min. at 37° C. Than, 100 μl of TMB substrate (0.05% 3,3′,5,5′ tetramethylbenzidine, 0.1% hydrogen peroxide, complex polypeptides in a buffered solution; Cell Signaling, USA; #7160) are added to each well and incubated for 30 min. at 25° C. Finally 100 μl of STOP solution (0.05 vol % α and β unsaturated carbonyl compound) are added to each well and the plate are shaked gently. The absorbance is measured at λ=450 nm (Wallac Victor2; Perkin Elmer, USA) within 30 min. after adding the STOP solution. The analysis of the data is performed using a statistical program (Excel; Microsoft, USA). Preferred compounds show an inhibitory activity towards Akt phosphorylation below 10 μM.

IC50 (phospho-Akt (Ser473))	SMILES	IC50 (A549 cells)
< 1 µM	N#Cc1cnn2cc(-c3ccccc3)c(-c3ccc(CN4CCC(c5n[nH]c(-c6ccccn6)n5)CC4)cc3)nc12 [Example 32, 6-Phenyl-5-(4-{[4-(5-pyridin-2-yl-1H-1,2,4-triazol-3-yl)piperidin-1-yl]methyl}phenyl)pyrazolo[1,5-a]pyrimidine-3-carbonitrile]	> 10 µM
< 1 µM	CCc1cnn2cc(-c3ccccc3)c(-c3ccc(CN4CCC(c5n[nH]c(-c6ccccn6)n5)CC4)cc3)nc12 [Example 34, 3-Ethyl-6-phenyl-5-(4-{[4-(5-pyridin-2-yl-1H-1,2,4-triazol-3-yl)piperidin-1-yl]methyl}phenyl)pyrazolo[1,5-a]pyrimidine]	< 10 µM
< 1 µM	Brc1cnn2cc(-c3ccccc3)c(-c3ccc(CN4CCC(c5n[nH]c(-c6ccccn6)n5)CC4)cc3)nc12 [Example 31, 3-Bromo-6-phenyl-5-(4-{[4-(5-pyridin-2-yl-1H-1,2,4-triazol-3-yl)piperidin-1-yl]methyl}phenyl)pyrazolo[1,5-a]pyrimidine]	< 10 µM
< 1 µM	Clc1cnn2cc(-c3ccccc3)c(-c3ccc(CN4CCC(c5n[nH]c(-c6ccccn6)n5)CC4)cc3)nc12 [Example 30, 3-Chloro-6-phenyl-5-(4-{[4-(5-pyridin-2-yl-1H-1,2,4-triazol-3-yl)piperidin-1-yl]methyl}phenyl)pyrazolo[1,5-a]pyrimidine]	< 10 µM

The next lines start with the molecule.

SMILES	IC50 (phospho-Akt (Ser473))	IC50 (A549 cells)
CC(c1ccc(-c2nc3nccn3cc2-c2ccccc2)cc1)N1CCC(c2n[nH]c(-c3ccccn3)n2)CC1 (racemic) [Example 23, 6-phenyl-7-(4-{1-[4-(5-pyridin-2-yl-1H-1,2,4-triazol-3-yl)piperidin-1-yl]ethyl}phenyl)imidazo[1,2-a]pyrimidine]	< 1 µM	> 10 µM
Fc1cnc2nc(-c3ccc(CN4CCC(c5n[nH]c(-c6ncccn6)n5)CC4)cc3)c(-c3ccccc3)cn12 [Example 25, 3-fluoro-6-phenyl-7-(4-{[4-(5-pyrimidin-2-yl-1H-1,2,4-triazol-3-yl)piperidin-1-yl]methyl}phenyl)imidazo[1,2-a]pyrimidine]	< 1 µM	> 10 µM
Fc1cnc2nc(-c3ccc(CN4CCC(c5n[nH]c(-c6cnccn6)n5)CC4)cc3)c(-c3ccccc3)cn12 [Example 24, 3-fluoro-6-phenyl-7-(4-{[4-(5-pyrazin-2-yl-1,2,4-triazol-3-yl)piperidin-1-yl]methyl}phenyl)imidazo[1,2-a]pyrimidine]	< 1 µM	> 10 µM
Cc1cccc(-c2nc(C3CCN(Cc4ccc(-c5nc6nccn6cc5-c5ccccc5)cc4)CC3)n[nH]2)n1 [Example 36, 7-[4-({4-[5-(6-Methylpyridin-2-yl)-1H-1,2,4-triazol-3-yl]piperidin-1-yl}methyl)phenyl]-6-phenylimidazo[1,2-a]pyrimidine]	< 1 µM	< 10 µM
C#Cc1cnn2cc(-c3ccccc3)c(-c3ccc(CN4CCC(c5n[nH]c(-c6ccccn6)n5)CC4)cc3)nc12 [Example 33, 3-Ethynyl-6-phenyl-5-(4-{[4-(5-pyridin-2-yl-1H-1,2,4-triazol-3-yl)piperidin-1-yl]methyl}phenyl)pyrazolo[1,5-a]pyrimidine]	< 1 µM	< 10 µM
Cc1ccnc(-c2nc(C3CCN(Cc4ccc(-c5nc6nccn6cc5-c5ccccc5)cc4)CC3)n[nH]2)c1 [Example 35, 7-[4-({4-[5-(4-Methylpyridin-2-yl)-1H-1,2,4-triazol-3-yl]piperidin-1-yl}methyl)phenyl]-6-phenylimidazo[1,2-a]pyrimidine]	< 1 µM	< 10 µM
CCc1nc2nc(-c3ccc(CN4CCC(c5n[nH]c(-c6ccccn6)n5)CC4)cc3)c(-c3ccccc3)cn2n1 [Example 40, 2-Ethyl-6-phenyl-5-(4-{[4-(5-pyridin-2-yl-1H-1,2,4-triazol-3-yl)piperidin-1-yl]methyl}phenyl)[1,2,4]triazolo[1,5-a]pyrimidine]	< 1 µM	< 10 µM
